Patent US6849598B1, “Therapeutic compositions comprising bactericidal/permeability-increasing (BPI) protein products” (XOMA, priority 1995, dated 2005)
Converted amounts (≈) assume the structure as drawn. Where two headings read alike, the source gives them in different places.

Tests used:
S. pneumoniae = experiment: Antibiotic susceptibility (MIC, Sensititre Trays) with rBPI21 poloxamer formulations; type: cell-based; conditions: for MIC: Streptococcus pneumoniae, read-out: Minimum Inhibitory Concentration
Experimental: The effect of therapeutic compositions of rBPI21 formulated with poloxamer, with or without EDTA, was evaluated on the antibiotic susceptibility of the multiple drug resistant A. baumannii, S. pneumoniae, E. faecium and P. aeruginosa organisms of Example 5. Therapeutic compositions were prepared containing 2 mg/mL rBPI21, (5 mM sodium citrate, 150 mM NaCl) with a 0.2% (w/v) concentration of PLURONIC F68, P103, P104, P105 or P123. The effect on the antibiotic susceptibility of the organisms was determined in Mueller-Hinton Broth plus Cations (CSMHB, Remel), or 40% pooled human serum in CSMHB (Sigma, St. Louis, Mo.), as follows.
Isolated colonies of the organism from overnight cultures were suspended in Microscan® Inoculum Water to a concentration equivalent to a 0.5 McFarland Standard (approximately 1×10^8 CFU/ml), determined using a Microscan® turbidimeter. Aliquots were transferred to either CSMHB or 40% pooled human serum in CSMHB. Each tube contained either a final concentration of 16 μg/mL rBPI21 or an equivalent volume of control buffer. Minimal inhibitory concentrations (MIC) for each antibiotic tested, i.e. the lowest concentration of antibiotic which inhibits visible growth, were determined using gram-negative (MB and MC) and gram-positive (MA) Sensititre Trays (Radiometer America, Westlake, Ohio), which allow for the rapid and simultaneous survey of a broad spectrum of standard antibiotics. Any other antimicrobial panel systems known in the art, such as the Microscan® (Dade Microscan, Sacramento, Calif.), Pasco (DIFCO, Detroit, Mich.) and Alamar (Alamar, Sacramento, Calif.) systems, may alternatively be used to assay for antibiotic susceptibility.
Tables 12-15 below display a summary of the results of the antibiotic screening panels, reported for each strain tested as the MIC of the tested antibiotics in the presence of the indicated rBPI21 therapeutic composition. The antibiotic susceptibility standards (interpretation of an MIC as clinically resistant (R), intermediate (I) or susceptible (S) according to NCCLS standards) applicable to the organism tested appear in superscript next to the MIC.

[1] = tested on: gram-positive organisms (Staphylococcus aureus, Staphylococcus epideimidis, Streptococcus faecalis, Bacillus subtilis, Micrococcus Iysodeikticus, Listeria …); conditions: BPI at 10^−6 M or 160 μg/ml; pH of either 7.0 or 5.5; cited from earlier work
[2] = tested on: human, rabbit and sheep red blood cells and several human tumor cell lines; conditions: BPI at 10^−6 M; cited from earlier work
gram-negative bacteria = conditions: broad range of gram-negative bacteria; Elsbach and Weiss (1992); cited from earlier work
[3] = tested on: Candida albicans and Candida parapsilosis; conditions: BPI at 10^−6 M; pH 7.0 or 5.5; cited from earlier work
[4] = CSMHB, 16 μg/mL rBPI21 with F68
[5] = CSMHB, 16 μg/mL rBPI21 with P103
[6] = CSMHB, 16 μg/mL rBPI21 with P104
[7] = CSMHB, 16 μg/mL rBPI21 with P105
[8] = CSMHB, 16 μg/mL rBPI21 with P123
[9] = Serum, 16 μg/mL rBPI21 with F68
[10] = Serum, 16 μg/mL rBPI21 with P103
[11] = Serum, 16 μg/mL rBPI21 with P104
[12] = Serum, 16 μg/mL rBPI21 with P105
[13] = Serum, 16 μg/mL rBPI21 with P123

Cc1onc(-c2ccccc2)c1C(=O)N[C@@H]1C(=O)N2[C@@H]1SC(C)(C)[C@@H]2C(=O)O [Oxacillin]
susceptibility interpretation of MIC (superscript) (S. pneumoniae; [4]): R | susceptibility interpretation of MIC (superscript) (S. pneumoniae; [5]): S | susceptibility interpretation of MIC (superscript) (S. pneumoniae; [6]): S | susceptibility interpretation of MIC (superscript) (S. pneumoniae; [7]): S | susceptibility interpretation of MIC (superscript) (S. pneumoniae; [8]): S | susceptibility interpretation of MIC (superscript) (S. pneumoniae; CSMHB, Control (no BPI)): R | susceptibility interpretation of MIC (superscript) (S. pneumoniae; [9]): R | susceptibility interpretation of MIC (superscript) (S. pneumoniae; [10]): R | susceptibility interpretation of MIC (superscript) (S. pneumoniae; [11]): R | susceptibility interpretation of MIC (superscript) (S. pneumoniae; [12]): R | susceptibility interpretation of MIC (superscript) (S. pneumoniae; [13]): R | susceptibility interpretation of MIC (superscript) (S. pneumoniae; Serum, Control (no BPI)): R | MIC (S. pneumoniae; [4]): 32 µg/mL (≈ 79.7 µM) | MIC (S. pneumoniae; [5]): < 0.25 µg/mL | MIC (S. pneumoniae; [6]): 0.5 µg/mL (≈ 1.25 µM) | MIC (S. pneumoniae; [7]): 1 µg/mL (≈ 2.49 µM) | MIC (S. pneumoniae; [8]): 0.5 µg/mL (≈ 1.25 µM) | MIC (S. pneumoniae; CSMHB, Control (no BPI)): 32 µg/mL (≈ 79.7 µM) | MIC (S. pneumoniae; [9]): > 32 µg/mL | MIC (S. pneumoniae; [10]): 32 µg/mL (≈ 79.7 µM) | MIC (S. pneumoniae; [11]): 32 µg/mL (≈ 79.7 µM) | MIC (S. pneumoniae; [12]): 32 µg/mL (≈ 79.7 µM) | MIC (S. pneumoniae; [13]): 32 µg/mL (≈ 79.7 µM) | MIC (S. pneumoniae; Serum, Control (no BPI)): 32 µg/mL (≈ 79.7 µM)

B1: BPI: bactericidal/permeability-increasing protein isolated from granules of mammalian polymorphonuclear leukocytes (protein, UniProt P17213 32-487, looked up)
Bactericidal …: VNPGVVVRISQKGLDYASQQGTAALQKELKRIKIPDYSDSFKIKHLGKGHYSFYSMDIREFQLPSSQISMVPNVGLKFSISNANIKISGKWKAQKRFLKMSGNFDLSIEGMSISADLKLGSNPTSGKPTITCSSCSSHINSVHVHISKSKVGWLIQLFHKKIESALRNKMNSQVCEKVTNSVSSELQPYFQTLPVMTKIDSVAGINYGLVAPPATTAETLDVQMKGEFYSENHHNPPPFAPPVMEFPAAHDRMVYLGLSDYFFNTAGLVYQEAGVLKMTLRDDMIPKESKFRLTTKFFGTFLPEVAKKFPNMKIQIHVSASTPPHLSVQPTGLTFYPAVDVQAFAVLPNSSLASLFLIGMHTTGSMEVSAESNRLVGELKLDRLLLELKHSNIGPFPVELLQDIMNYIVPILVLPRVNEKLQKGFPLPTPARVQLYNVVLQPHQNFLLFGADVVYK
toxic effect on gram-positive organisms [1]: no toxic effect | toxicity to higher eukaryotic cells [2]: non-toxic | concentrations at which BPI exhibits anti-bacterial activity (as low as) (gram-negative bacteria): 10^−8 to 10^−9 M | toxic effect on fungi [3]: no toxic effect
